From patent US20220193029A1, “BRYOSTATIN COMPOUNDS FOR ENHANCEMENT OF IMMUNOTHERAPY” (priority 2019, published 2022)

Columns and labels:
[1] = system: CD22 surface expression in NALM6 cells; test: CD22 surface expression assay by flow cytometry; assay type: cell-based, human; conditions: NALM6 cells; for fold induction at 0.001 µM: Homo sapiens, NALM-6, read-out: Fold increase CD22 expression; for fold induction at 0.001 µM / Fold increase CD22 expression: At 1 nM, relative to DMSO control
Experimental: Cell cultures were maintained between 4×10^5 and 3×10^6 cells/mL according to vendor instructions.
Cell suspension from a confluent T75 flask (Fisher) was transferred to a 15 mL falcon tube and centrifuged at 1100 rpm for 7 minutes. […] Cells were counted using a Countess II Automated Cell Counter (Fisher). […] 199 μL of this stock was added to 24 wells (enough for triplicate measurements for 8 different experimental conditions) in a 96-well plate. […] 1 μL of DMSO or the appropriate stock solution of compound in DMSO was added to each well. Cells were incubated for 24 hours, at which point the cell suspensions were transferred to 1.5 mL Eppendorf tubes and diluted with 1.0 mL of PBS (Hyclone, without Ca^2+ or Mg^2+). Samples were centrifuged at 2000 rpm for 5 min at RT. […] Cells were sub-cultured between 2×10^5 and 3×10^6 cells/mL in 24-well plates for an additional 24 hrs-7 days, at which point CD22 surface expression was assayed by flow cytometry.
Cells from one well were counted using a Countess II Automated Cell Counter (Fisher). ˜200,000-300,000 cells from each well were added to 1.5 mL Eppendorf tubes containing PBS (final volume ˜1.2 mL). The cell suspensions were centrifuged at 1500 rpm for 7 minutes at 4° C. The supernatant was aspirated, and the cell pellet was resuspended in 99 μL of pre-chilled FACS buffer (0.5% w/v BSA in PBS). […] Samples were then diluted with an additional 1.0 mL of FACS buffer and centrifuged at 1500 rpm for 7 minutes at 4° C. […] Cells were stained with DAPI and CD22 surface expression was analyzed using the FACScan Analyzer at the Stanford Shared FACS Facility. Data analysis was performed using FlowJo and Microsoft Excel.

PKCα = target: T1, PKCα (Homo sapiens, UniProt P17252); test: cell-free competitive PKC binding assay with [3H]-phorbol dibutyrate; conditions: competition with [3H]-PDBu, recombinant human PKC isoform
T1 construct: purchased Invitrogen
Experimental: (§1) Because a prerequisite for PKC pathway involvement is binding to PKC, compounds were initially evaluated for PKC affinity in a cell-free competitive binding assay with tritiated phorbol dibutyrate ([^3H]-PDBu). Assays were performed with representative members of both the conventional (PKCα) and novel (PKCδ) PKC families. Subsequently, compounds were assayed for PKC activation in living cells using an isoform translocation assay.
To a 50 mL polypropylene tube was added Tris-HCl (pH 7.4, 1 M, 1 mL), KCl (1 M, 2 mL), CaCl2) (0.1 M, 30 μL), and bovine serum albumin (BSA, 40 mg, Sigma-Aldrich). This mixture was diluted to 20 mL with deionized H2O and mixed gently. The buffer was stored on ice until use.
For every two assays, 3.5 mg phosphatidylserine (Avanti Polar Lipids, porcine, 25 mg/mL CHCl3 solution) was concentrated by removing chloroform under a stream of nitrogen followed by reduced pressure. The solid PS was suspended as vesicles in freshly prepared PKC binding assay buffer (3.5 mL) by sonicating six times for 30 sec, with a 30 sec rest between sonications (Branson Sonifier 250, power=2, 50% duty cycle). The resulting milky cloudy mixture (1 mg/mL) was stored on ice until use.
(§2) Assay PKC was prepared by dissolving a 4 μg aliquot of the indicated recombinant human PKC isoform (Invitrogen) into 11.6 mL of PKC binding assay buffer (this amount is sufficient for two assays). The diluted PKC was stored on ice for immediate use.
^3H-PDBu (American Radiolabeled Chemicals, Inc.; 1 mCi/mL acetone solution; specific activity: 20 Ci/mmol) was diluted […] with DMSO. The resulting 500 nM stock solution was further diluted with DMSO to 30 nM.
Compound dilutions were prepared by serially diluting from a chosen “high” concentration by factors of 3 or 4.
To a polypropylene tube was added 3.3 mL of 1 mg/mL PS vesicles solution, 11 mL of PKC isoform solution, and 1.1 mL of 30 nM ^3H-PDBu solution were added. The resulting solution was vortexed to mix and stored on ice.
Materials: • Glass-fiber filters (Whatman GF/B) were prepared by soaking them in a solution of aqueous polyethyleneimine (10% by vol, 18 mL) in deionized water (600 mL) for ≥1 h. • 500 mL “rinsing buffer” of 20 mM Tris, pH 7.4 was cooled on ice for the duration of the incubation period and for the remainder of the assay.
(§3) Triplicate data points were obtained for each analog concentration. For each data point, 280 μL of “Master Mix” Solution and 20 μL of analog compound at a specified concentration were added to a polypropylene tube. […] Maximal ^3H-PDBu binding was assessed in triplicate by substitution of the analog compound with 20 μL DMSO. The solutions were vortexed to mix, incubated at 37° C. for 10 min, and incubated on ice for at least 30 min prior to filtration. Using a Brandel Harvester, the assay contents from each polypropylene tube were vacuum-filtered through polyethylenimine-soaked filters, washing with rinsing buffer (3×) and drying first under vacuum for 5 min and then under ambient conditions for ≥2 h. The resulting filters had circular perforations for each data point, which were removed with forceps and placed in a scintillation vial. Scintillation vials were filled with Bio-Safe II scintillation fluid (5 mL) and measured for radioactivity using a Beckman LS 6000SC scintillation counter. Counts per minute (cpm) were averaged for each triplicate dilution. The data were plotted—cpm vs. log(concentration)—using Prism® by GraphPad Software and an IC50 was determined using that program's built-in one-site competition least squares regression function. Ki values were calculated using the equation: Ki=IC50/(1+([3H−PDBu]/Kd)). The Kd of ^3H-PDBu for PKC isoforms was measured separately via saturation binding experiments under identical conditions.

PKC = test: cell-free PKC binding assay, isoform not given; set-up: species or system human
Experimental: as §1, §2, §3

[2] = system: CD22 surface expression in JB cells; test: CD22 surface expression assay, AIDS-NHL cell line JB; conditions: 1 nM or 10 nM, 48 hours
Experimental: (§4) AIDS-NHL cell lines were incubated in IF10 medium, consisting of IMDM medium (Life technologies) containing 10% fetal bovine serum (FBS, Omega Scientific), 100 units/mL of penicillin, and 100 μg/ml of streptomycin (Invitrogen). Cells were incubated at 37° C. in 5% CO2.
(§5) Cells were exposed to compound for the either 24 or 48 h before staining and flow cytometric analysis of receptor levels.
(§6) Cells in each well were washed with phosphate buffered saline (PBS) containing 2% FBS, then cells were centrifuged for 9 min at 233 xg and resuspended in 50 μL of a 1:1 dilution of phosphate buffered saline (PBS): Human AB serum (Sigma). […] Stained samples were stored at 4° C. Flow cytometry samples were analyzed using a FACSCelesta (BD Biosciences) flow cytometer and data were analyzed using FlowJo software (version 10).
(§7) Panel C: JB cells were incubated with 1 nM (left hand bars) or 10 nM (right hand bars) of compound for 48 hours. CD22 surface expression was then assayed by flow cytometry (n=6 biological replicates; data presented as mean values ±SE). Panel D: 2F7 cells were incubated with 1 nM (left hand bars) or 10 nM (right hand bars) of compound for 48 hours. CD22 surface expression was then assayed by flow cytometry (n=6 biological replicates; data presented as mean values ±SE).

[3] = system: CD22 surface expression in 2F7 cells; test: CD22 surface expression assay, AIDS-NHL cell line 2F7; conditions: 1 nM or 10 nM, 48 hours
Experimental: as §4, §5, §6, §7

CCCCCCCC(=O)O[C@H]1/C(=C/C(=O)OC)C[C@H]2C[C@H]([C@@H](C)O)OC(=O)C[C@H](O)C[C@@H]3C[C@H](OC(C)=O)C(C)(C)[C@](O)(C[C@@H]4C[C@@H](C)C[C@H](/C=C/C(C)(C)[C@]1(O)O2)O4)O3 [SUW226]
fold induction at 0.001 µM [1]: 1.76 | Ki (PKCα): 5.8 nM

CCCCCC#CC(=O)O[C@H]1/C(=C/C(=O)OC)C[C@H]2C[C@H]([C@@H](C)O)OC(=O)C[C@H](O)C[C@@H]3C[C@H](OC(C)=O)C(C)(C)[C@](O)(C[C@@H]4C[C@@](O)(CO)C[C@H](/C=C/C(C)(C)[C@]1(O)O2)O4)O3 [SUW203]
binding affinity to PKC, in words (PKC): single-digit nanomolar affinity | fold induction at 0.001 µM [1]: 1.16 | Ki (PKCα): 1 nM

CCCC=CC=CC(=O)OC1C(=CC(=O)OC)CC2CC(C(C)O)OC(=O)CC(O)CC3CC(OC(C)=O)C(C)(C)C(O)(CC4CC(=CC(=O)OCC)CC(C=CC(C)(C)C1(O)O2)O4)O3 (centres unmarked) [SUW218]
Fold increase CD22 expression [1]: 1.92 fold | Ki (PKCα): 7.1 nM

C=CCOC(=O)/C=C1/C[C@H]2C[C@]3(O)O[C@H](C[C@@H](O)CC(=O)O[C@@H]([C@@H](C)O)C[C@@H]4C/C(=C\C(=O)OC)[C@H](OC(=O)/C=C/C=C/CCC)[C@@](O)(O4)C(C)(C)/C=C/[C@@H](C1)O2)C[C@H](OC(C)=O)C3(C)C [SUW229]
upregulated CD22 surface expression [2]: ~2 fold | activity in the CD22 induction assay, in words ([1]; 1 nM or 10 nM, 24 hours): top performer | Ki (PKCα): 1.8 nM | upregulated CD22 surface expression [3]: ~2 fold

CCC/C=C/C=C/C(=O)O[C@H]1/C(=C/C(=O)OC)C[C@H]2C[C@H]([C@@H](C)O)OC(=O)C[C@H](O)C[C@@H]3C[C@H](OC(C)=O)C(C)(C)[C@](O)(C[C@@H]4C[C@H](OC(C)=O)C[C@H](/C=C/C(C)(C)[C@]1(O)O2)O4)O3 [SUW206]
fold induction at 0.001 µM [1]: 1.63 | Ki (PKCα): 1 nM

CCCC=CC=CC(=O)OC1C(=CC(=O)OC)CC2CC(C(C)O)OC(=O)CC(O)CC3CC(OC(C)=O)C(C)(C)C(O)(CC4CC(=CC(=O)OCC)CC(C=CC(C)(C)C1(O)O2)O4)O3 (centres unmarked) [SUW217]
Fold increase CD22 expression [1]: 1.97 fold | Ki (PKCα): 9.2 nM

CCC/C=C/C=C/C(=O)O[C@H]1/C(=C/C(=O)OC)C[C@H]2C[C@H]([C@@H](C)O)OC(=O)C[C@H](O)C[C@@H]3C[C@H](OC(C)=O)C(C)(C)[C@](O)(C[C@@H]4C[C@@H](OC(C)=O)C[C@H](/C=C/C(C)(C)[C@]1(O)O2)O4)O3 [SUW207]
fold induction at 0.001 µM [1]: 1.33 | Ki (PKCα): 2 nM
